Results as given in article PMC11448502, “Cryo-EM structures of the human P2X1 receptor reveal subtype-specific architecture and antagonism by supramolecular ligand-binding” (Nature Communications, 2024).
Numbering of substitutions follows the chain as printed. “And” between values parts separate entries of the source, which are not always exact repeats. Equal entries are not always repeated.

Experiments:
Type in all cases: cell-based
hP2X3 WT = target: T1, hP2X3 WT (Homo sapiens, UniProt P56373); assay: ATP dose response (EC50), TEVC in oocytes
T1 construct: expressed in transfected cells
T1 sequence (P56373 1-397): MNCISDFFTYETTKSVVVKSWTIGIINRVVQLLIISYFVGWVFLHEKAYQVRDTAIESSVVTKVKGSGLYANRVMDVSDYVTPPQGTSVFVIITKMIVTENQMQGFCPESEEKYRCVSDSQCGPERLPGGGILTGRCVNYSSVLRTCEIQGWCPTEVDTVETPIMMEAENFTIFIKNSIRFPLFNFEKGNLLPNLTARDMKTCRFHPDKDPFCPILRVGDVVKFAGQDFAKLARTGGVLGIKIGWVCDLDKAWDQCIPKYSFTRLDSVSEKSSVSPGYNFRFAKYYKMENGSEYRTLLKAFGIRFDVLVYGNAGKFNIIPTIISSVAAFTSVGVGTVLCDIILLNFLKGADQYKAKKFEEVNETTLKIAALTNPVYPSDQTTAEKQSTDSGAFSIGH

hP2X1 K309A = target: T2, hP2X1 K309A (Homo sapiens, UniProt P51575, K309A); assay: NF449 inhibition dose response (IC50), TEVC in oocytes; details: for Normalized Current: hP2X1 K309A
T2 construct: hP2X1 mRNA that was made from linearized full-length wild-type or mutant pcDNA 3.1x; expressed in transfected cells; host or cells: Xenopus laevis oocytes (mRNA injection)
T2 sequence (P51575 1-399 K309A): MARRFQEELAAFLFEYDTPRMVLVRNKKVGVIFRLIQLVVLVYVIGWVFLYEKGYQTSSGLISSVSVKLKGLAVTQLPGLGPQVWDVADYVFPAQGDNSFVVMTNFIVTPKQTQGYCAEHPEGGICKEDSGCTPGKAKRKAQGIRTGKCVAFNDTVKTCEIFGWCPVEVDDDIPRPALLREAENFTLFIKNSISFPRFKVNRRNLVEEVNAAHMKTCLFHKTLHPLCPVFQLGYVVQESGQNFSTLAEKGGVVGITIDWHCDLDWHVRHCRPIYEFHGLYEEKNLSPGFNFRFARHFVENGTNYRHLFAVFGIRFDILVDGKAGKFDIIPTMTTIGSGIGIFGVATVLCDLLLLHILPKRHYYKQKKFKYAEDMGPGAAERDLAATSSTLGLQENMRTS
Description: (§1) Oocytes were purchased defolliculated from Ecocyte Bioscience in Barth’s Solution (88 mM NaCl, 1 mM KCl, 0.82 mM MgSO4, 0.33 mM Ca(NO3)2, 0.41 mM CaCl2, 2.4 mM NaHCO3, 5 mM Tris-HCl) supplemented with penicillin (100 U/mL) and streptomycin (100 µg/mL). Xenopus laevis oocytes were then injected with 50 nL of 100 ng/μL hP2X1 mRNA that was made from linearized full-length wild-type or mutant pcDNA 3.1x according to the protocol provided in the mMessage mMachine kit (Invitrogen). Injected oocytes were allowed to express for ~20 hours at 18 °C before recording was performed.
(§2) Data acquisition was performed using the Oocyte Clamp OC-725C amplifier and pClamp 8.2 software. Buffers were applied using a gravity fed RSC-200 Rapid Solution Changer that flows at ~5 mL/min. All experiments use Sutter filamented glass 10 cm in length with an inner diameter of 0.69 mm and an outer diameter of 1.2 mm to impale oocytes and clamp the holding voltage at −60 mV. Experiments were recorded in buffer containing 10 mM HEPES (pH 7.4), 140 mM NaCl, 5 mM KCl, 2 mM CaCl2, 2 mM MgCl2, and 10 mM glucose.
(§3) To test a dilution series of an antagonist at discrete concentrations, 10 µM ATP (2 mM ATP for K309A only) was first applied to evoke an initial maximum current. The oocyte was then washed with buffer for one minute, followed by one minute application of an antagonist test-concentration, and concluded by co-application of the same test concentration with 10 µM ATP (2 mM ATP for K309A). The antagonized signal was then normalized against the initial ATP excitatory signal. Each test concentration was performed in triplicate across different oocytes. The data was then fit to a nonlinear regression named “[inhibitor] vs. response – Variable slope (four parameters)” in Prism 9 to produce a sigmoidal curve and afford an IC50 value. Each singular condition was used to generate an average which is reported plus or minus its standard deviation between three discrete trials.

hP2X1 K136A = target: T3, hP2X1 K136A (Homo sapiens, UniProt P51575, K136A); assay: as above; details: for Normalized Current: hP2X1 K136A
T3 construct: hP2X1 mRNA that was made from linearized full-length wild-type or mutant pcDNA 3.1x; expressed in transfected cells; host or cells: Xenopus laevis oocytes (mRNA injection)
T3 sequence (P51575 1-399 K136A): T2 sequence (P51575 1-399 K309A) with K136A, A309K
Description: as §1, §2, §3

hP2X1 N184A = target: T4, hP2X1 N184A (Homo sapiens, UniProt P51575, N184A); assay: as above; details: for Normalized Current: hP2X1 N184A
T4 construct: hP2X1 mRNA that was made from linearized full-length wild-type or mutant pcDNA 3.1x; expressed in transfected cells; host or cells: Xenopus laevis oocytes (mRNA injection)
T4 sequence (P51575 1-399 N184A): T2 sequence (P51575 1-399 K309A) with N184A, A309K
Description: as §1, §2, §3

Nc1ncnc2c1ncn2[C@@H]1O[C@H](COP(=O)(O)OP(=O)(O)OP(=O)(O)O)[C@@H](O)[C@H]1O [ATP]
EC50 (hP2X3 WT; TEVC): 0.8 ± 0.1 µM
Normalized Current (hP2X3 WT; [ATP] 1.000E-04 M): 1.024 and 0.937 and 0.934
Normalized Current (hP2X3 WT; [ATP] 1.563E-06 M): 0.9021 and 0.8096 and 0.6657
Normalized Current (hP2X3 WT; [ATP] 2.500E-05 M): 1.229 and 0.9489 and 0.8224
Normalized Current (hP2X3 WT; [ATP] 3.906E-07 M): 0.1693 and 0.1661 and 0.1374
Normalized Current (hP2X3 WT; [ATP] 6.250E-06 M): 0.9276 and 0.9021 and 0.8266
Normalized Current (hP2X3 WT; [ATP] 9.766E-08 M): 0.0748 and 0.0739 and 0.04276
Hill slope of activation by ATP (hP2X3 WT; mean ± SD of three EC50 traces): 2.5 ± 0.6

O=C(Nc1cc(C(=O)Nc2ccc(S(=O)(=O)O)cc2S(=O)(=O)O)cc(C(=O)Nc2ccc(S(=O)(=O)O)cc2S(=O)(=O)O)c1)Nc1cc(C(=O)Nc2ccc(S(=O)(=O)O)cc2S(=O)(=O)O)cc(C(=O)Nc2ccc(S(=O)(=O)O)cc2S(=O)(=O)O)c1 [NF449, 4,4’,4”,4’’’-(carbonylbis(imino-5,1,3-benzenetriylbis(carbonylimino)))tetrakis-benzene-1,3-disulfonic acid]
reduction in inhibitory potency (IC50) of NF449 (hP2X1 K309A; hP2X1 K309A vs wild-type): 5 fold
Normalized Current (hP2X1 K309A; [NF449] 1.600E-09 M): 0.804 and 0.6904 and 0.632
Normalized Current (hP2X1 K309A; [NF449] 3.200E-10 M): 1.021 and 0.9283 and 0.8888
Normalized Current (hP2X1 K309A; [NF449] 6.400E-11 M): 1.062 and 1.037 and 0.9009
Normalized Current (hP2X1 K309A; [NF449] 8.000E-09 M): 0.3679 and 0.3618 and 0.2758
reduction in inhibitory potency (IC50) of NF449 (hP2X1 K136A; hP2X1 K136A vs wild-type): 39 fold
Normalized Current (hP2X1 K136A; [NF449] 1.600E-09 M): 1
Normalized Current (hP2X1 K136A; [NF449] 2.000E-07 M): 0.205 and 0.1861 and 0.1104
Normalized Current (hP2X1 K136A; [NF449] 3.200E-10 M): 0.9716 and 0.9527 and 0.8864
Normalized Current (hP2X1 K136A; [NF449] 4.000E-08 M): 0.5079 and 0.4606 and 0.4322
Normalized Current (hP2X1 K136A; [NF449] 8.000E-09 M): 0.7634 and 0.7445 and 0.5647
reduction in inhibitory potency of NF449 (hP2X1 N184A; hP2X1 N184A vs wild-type): ~ 6 fold
Normalized Current (hP2X1 N184A; [NF449] 1.280E-11 M): 1.058 and 0.9967 and 0.9456
Normalized Current (hP2X1 N184A; [NF449] 1.600E-09 M): 0.7543 and 0.7296
Normalized Current (hP2X1 N184A; [NF449] 3.200E-10 M): 0.9687 and 0.7936 and 0.7686
Normalized Current (hP2X1 N184A; [NF449] 4.000E-08 M): 0.04235 and 0.03835 and 0.03234
Normalized Current (hP2X1 N184A; [NF449] 6.400E-11 M): 0.9352 and 0.9156 and 0.8436
Normalized Current (hP2X1 N184A; [NF449] 8.000E-09 M): 0.4048 and 0.3885 and 0.3164
